Measurements: patent US8017612B2, “Piperazine compound and use thereof as a HCV polymerase inhibitor” (priority 2006, dated 2011)

Experiments:
[1] = molecular target: T1, HCV polymerase (NS5B) type 1a (Hepatitis C virus genotype 1a, UniProt P26664); test: Assay of enzyme (HCV polymerase) inhibitory activity, type 1a enzyme; type: biochemical, HCV type 1a (cloned from the blood of patients); conditions: HCV polymerase inhibitory activity IC50, 1a, type 1a enzyme
T1 construct: made in house; host or cells: Escherichia coli (by the 'similar method' of the 1b enzyme)
In short: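 Reactions ran 60 min at 25° C in 20 mM Tris-HCl pH 7.5, 5 mM MgCl2, 50 mM NaCl, holding genotype 1a NS5B (1.5 μg/ml, Δ47 C-terminus, 6His), substrate RNA 5 μg/ml, UTP 2 μM with tritiated UTP and other NTPs 50 μM. IC50 derived from incorporated radiolabel in filter-trapped RNA relative to uninhibited reaction.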

[2] = molecular target: T2, HCV polymerase (NS5B) type 1b (Hepatitis C virus genotype 1b, UniProt P26663); test: Assay of enzyme (HCV polymerase) inhibitory activity, type 1b enzyme; type: biochemical, HCV BK strain (type 1b); conditions: HCV polymerase inhibitory activity IC50, 1b, type 1b enzyme
T2 construct: a region encoding NS5B (J Virol 1991 March, 65(3), 1105-13, 544 amino acids after deletion of 47 amino acids on the C-terminal); 6xHis (C); made in house; host or cells: Escherichia coli
In short: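 IC50 derived from [3H]UTP incorporation into TCA-insoluble RNA, compared with and without test compound. Reaction (25 °C, 60 min, Tris pH 7.5, 5 mM MgCl2): E. coli-expressed 1b NS5B Δ47 with His tag at 0.5 μg/ml, 5 μg/ml run-off substrate RNA, ATP/GTP/CTP 50 μM, UTP 2 μM.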

Structure (SMILES) | IC50 [1] [nM] | IC50 [2] [nM]
O=C(NCc1ccc(OC(F)(F)F)cc1)[C@H]1CN(c2nc3nc(C4CCC4)ncc3s2)CCN1S(=O)(=O)c1ccc(C(F)(F)F)cc1 [Example 1072, (R)-4-(5-cyclobutyl-thiazolo[4,5-d]pyrimidin-2-yl)-1-(4-trifluoromethyl-benzenesulfonyl)-piperazine-2-carboxylic acid 4-trifluoromethoxy-benzylamide] | < 100 | < 100
O=C(NCc1ccc(OC(F)F)c(F)c1)[C@H]1CN(c2nc3nc(C4CC4)ncc3s2)CCN1S(=O)(=O)c1ccc(OC(F)(F)F)cc1 [Example 1073, (R)-4-(5-cyclopropyl-thiazolo[4,5-d]pyrimidin-2-yl)-1-(4-trifluoromethoxy-benzenesulfonyl)-piperazine-2-carboxylic acid 4-difluoromethoxy-3-fluoro-benzylamide] | < 100 | < 100
O=C(NCc1ccc(OC(F)F)c(F)c1)[C@H]1CN(c2nc3nc(C4CC4)ncc3s2)CCN1S(=O)(=O)c1ccc(C(F)(F)F)cc1 [Example 1074, (R)-4-(5-cyclopropyl-thiazolo[4,5-d]pyrimidin-2-yl)-1-(4-trifluoromethyl-benzenesulfonyl)-piperazine-2-carboxylic acid 4-difluoromethoxy-3-fluoro-benzylamide] | < 100 | < 100
CC(C)(O)c1ncc2sc(N3CCN(S(=O)(=O)c4ccc(C(F)(F)F)cc4)[C@@H](C(=O)NCc4ccc(OC(F)(F)F)cc4)C3)nc2n1 [Example 1075, (R)-4-[5-(1-hydroxy-1-methyl-ethyl)-thiazolo[4,5-d]pyrimidin-2-yl]-1-(4-trifluoromethyl-benzenesulfonyl)-piperazine-2-carboxylic acid 4-trifluoromethoxy-benzylamide] | < 100 | < 100
COCC1(c2ncc3sc(N4CCN(S(=O)(=O)c5ccc(OC(F)(F)F)cc5)[C@@H](C(=O)NCc5ccc(OC(F)(F)F)cc5)C4)nc3n2)CC1 [Example 1076, (R)-4-[5-(1-methoxymethyl-cyclopropyl)-thiazolo[4,5-d]pyrimidin-2-yl]-1-(4-trifluoromethoxy-benzenesulfonyl)-piperazine-2-carboxylic acid 4-trifluoromethoxy-benzylamide] | < 100 | < 100
O=C(NCc1ccc(OC(F)(F)F)cc1)[C@H]1CN(c2nc3nc(C4(CO)CC4)ncc3s2)CCN1S(=O)(=O)c1ccc(OC(F)(F)F)cc1 [Example 1077, (R)-4-[5-(1-hydroxymethyl-cyclopropyl)-thiazolo[4,5-d]pyrimidin-2-yl]-1-(4-trifluoromethoxy-benzenesulfonyl)-piperazine-2-carboxylic acid 4-trifluoromethoxy-benzylamide] | < 100 | < 100
O=C(NCc1ccc(OC(F)(F)F)cc1)[C@H]1CN(c2nc3c(=O)n(CCO)ncc3s2)CCN1S(=O)(=O)c1ccc(OC(F)(F)F)cc1 [Example 1078, (R)-4-[5-(2-hydroxy-ethyl)-4-oxo-4,5-dihydro-thiazolo[4,5-d]pyridazin-2-yl]-1-(4-trifluoromethoxy-benzenesulfonyl)-piperazine-2-carboxylic acid 4-trifluoromethoxy-benzylamide] | < 100 | < 100
COC1(c2ncc3sc(N4CCN(S(=O)(=O)c5ccc(OC(F)(F)F)cc5)[C@@H](C(=O)NCc5ccc(OC(F)(F)F)cc5)C4)nc3n2)CC1 [Example 1079, (R)-4-[5-(1-methoxy-cyclopropyl)-thiazolo[4,5-d]pyrimidin-2-yl]-1-(4-trifluoromethoxy-benzenesulfonyl)-piperazine-2-carboxylic acid 4-trifluoromethoxy-benzylamide] | < 100 | < 100
O=C(NCc1ccc(OC(F)(F)F)cc1)[C@H]1CN(c2nc3nc(C4(O)CC4)ncc3s2)CCN1S(=O)(=O)c1ccc(OC(F)(F)F)cc1 [Example 1080, (R)-4-[5-(1-hydroxy-cyclopropyl)-thiazolo[4,5-d]pyrimidin-2-yl]-1-(4-trifluoromethoxy-benzenesulfonyl)-piperazine-2-carboxylic acid 4-trifluoromethoxy-benzylamide] | < 100 | < 100
